From US9163021B2, “Pyrrolo[3,2-c]pyridine tropomyosin-related kinase inhibitors” (Pfizer Limited, priority 2012, dated 2015) come the findings set out here.

Chain of TRKA (P04629 441-796): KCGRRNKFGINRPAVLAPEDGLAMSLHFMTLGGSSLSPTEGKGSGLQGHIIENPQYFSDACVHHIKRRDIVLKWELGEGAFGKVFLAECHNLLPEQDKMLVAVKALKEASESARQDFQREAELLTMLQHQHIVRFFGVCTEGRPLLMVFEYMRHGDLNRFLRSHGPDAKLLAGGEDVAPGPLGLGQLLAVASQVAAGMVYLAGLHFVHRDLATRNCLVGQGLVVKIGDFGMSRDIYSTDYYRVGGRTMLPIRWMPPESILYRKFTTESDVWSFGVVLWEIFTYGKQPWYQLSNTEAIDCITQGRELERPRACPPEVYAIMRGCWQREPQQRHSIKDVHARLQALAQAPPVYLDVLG

In this experiment the target is TRKA (Homo sapiens (Human), UniProt P04629). As to the kind of experiment: Isolated TRK enzyme assay (HTRF KinEASE-TK), PV3144 TrkA enzyme assay. It counts as biochemical. Particulars: arithmetic mean where more than one reading. The method, boiled down:
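Kinase (recombinant His-TrkA cytoplasmic domain, ATP-preactivated 20 min) met compound 20 min, then biotinylated TK substrate (1 µM final) with Mg2+/DTT buffer; HTRF detection.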
Take `COc1ccc(CC(=O)Nc2cncc(C(=O)c3cn(C(C)C)c4ccncc34)c2)cc1` [Example 128, 2-(4-methoxyphenyl)-N-(5-{[1-(propan-2-yl)-1H-pyrrolo[3,2-c]pyridin-3-yl]carbonyl}pyridin-3-yl)acetamide]: inhibition was half-maximal at 147 nM (IC50).

In turn, `CC(C)n1cc(C(=O)c2ccnc(NC(=O)Cn3ccnc3)c2)c2cnccc21` [Example 102, 2-(1H-imidazol-1-yl)-N-(4-{[1-(propan-2-yl)-1H-pyrrolo[3,2-c]pyridin-3-yl]carbonyl}pyridin-2-yl)acetamide] displayed an IC50 of 7450 nM.

Regarding `COCc1nc(CC(=O)Nc2cc(C(=O)c3cn(C(C)C)c4ccncc34)ccn2)c(C2CC2)o1` [Example 80, 2-[5-cyclopropyl-2-(methoxymethyl)-1,3-oxazol-4-yl]-N-(4-{[1-(propan-2-yl)-1H-pyrrolo[3,2-c]pyridin-3-yl]carbonyl}pyridin-2-yl)acetamide], 357 nM corresponded to half-maximal inhibition (IC50).

With `Cc1ccnn1CC(=O)Nc1cncc(C(=O)c2cn(C(C)C)c3ccncc23)c1` [Example 135, 2-(5-methyl-1H-pyrazol-1-yl)-N-(5-{[1-(propan-2-yl)-1H-pyrrolo[3,2-c]pyridin-3-yl]carbonyl}pyridin-3-yl)acetamide], the IC50 came out at 2600 nM.

Regarding `Cc1cc(C)n(CC(=O)Nc2cc(C(=O)c3cn(CCO)c4ccncc34)ccn2)n1` [Example 152, 2-(3,5-dimethyl-1H-pyrazol-1-yl)-N-(4-{[1-(2-hydroxyethyl)-1H-pyrrolo[3,2-c]pyridin-3-yl]carbonyl}pyridin-2-yl)acetamide], 2150 nM corresponded to half-maximal inhibition (IC50).

As to `Cc1cc(C(F)(F)F)nn1CC(=O)Nc1cncc(C(=O)c2cn(C(C)CO)c3ccncc23)c1` (single isomer, unassigned) [Example 63, N-(5-{[1-(1-hydroxypropan-2-yl)-1H-pyrrolo[3,2-c]pyridin-3-yl]carbonyl}pyridin-3-yl)-2-[5-methyl-3-(trifluoromethyl)-1H-pyrazol-1-yl]acetamide], inhibition was half-maximal at 28.8 nM (IC50).

Consider `CC(C)(CO)n1cc(C(=O)c2cncc(NC(=O)Cc3cccc(C(F)(F)F)c3)c2)c2cncc(F)c21` [Example 5, N-{5-[7-Fluoro-1-(2-hydroxy-1,1-dimethyl-ethyl)-1H-pyrrolo[3,2-c]pyridine-3-carbonyl]-pyridin-3-yl}-2-(3-trifluoromethyl-phenyl)-acetamide], for which 4.41 nM corresponded to half-maximal inhibition (IC50). Against the preceding compound, the IC50 is about 6.5-fold lower.

For the compound `CC(CO)n1cc(C(=O)c2cncc(NC(=O)Cc3ccc(C(F)(F)F)cc3)c2)c2cncc(F)c21` (single isomer, unassigned) [Example 222, N-(5-{[7-fluoro-1-(1-hydroxypropan-2-yl)-1H-pyrrolo[3,2-c]pyridin-3-yl]carbonyl}pyridin-3-yl)-2-[4-(trifluoromethyl)phenyl]acetamide], the IC50 was determined as 16.4 nM.

Consider `O=C(Cc1cccc(OC(F)(F)F)c1)Nc1cc(C(=O)c2cn(C3COC3)c3ccncc23)ccn1` [Example 194, N-(4-{[1-(oxetan-3-yl)-1H-pyrrolo[3,2-c]pyridin-3-yl]carbonyl}pyridin-2-yl)-2-[3-(trifluoromethoxy)phenyl]acetamide], for which the IC50 came to 13.8 nM.

The compound `CC(C)n1cc(C(=O)c2ccnc(NC(=O)Cc3cccc(CC(C)(C)O)c3)c2)c2cnccc21` [Example 97, 2-[3-(2-hydroxy-2-methylpropyl)phenyl]-N-(4-{[1-(propan-2-yl)-1H-pyrrolo[3,2-c]pyridin-3-yl]carbonyl}pyridin-2-yl)acetamide] showed a half-inhibitory concentration (IC50) of 31.1 nM. Compared with the last compound, the IC50 is about 2.3-fold higher.

Compound `Cc1cc(CC(=O)Nc2cc(C(=O)c3cn(C(C)C)c4ccncc34)ccn2)[nH]n1` [Example 177, 2(3-methyl-1H-pyrazol-5-yl)-N-(4-{[1-(propan-2-yl)-1H-pyrrolo[3,2-c]pyridin-3-yl]carbonyl}pyridin-2-yl)acetamide] came in with an IC50 of 102 nM.

For the compound `Cc1nn(C)cc1CC(=O)Nc1ccnc(C(=O)c2cn(C(C)C)c3ccncc23)c1` [Example 58, 2-(1,3-dimethyl-1H-pyrazol-4-yl)-N-(2-{[1-(propan-2-yl)-1H-pyrrolo[3,2-c]pyridin-3-yl]carbonyl}pyridin-4-yl)acetamide], it took 6520 nM to reach half-maximal inhibition (IC50).

For the compound `CC(C)n1cc(C(=O)c2cc(NC(=O)Cc3ccc(C#N)cn3)ccn2)c2cnccc21` [Example 140, 2-(5-cyanopyridin-2-yl)-N-(2-{[1-(propan-2-yl)-1H-pyrrolo[3,2-c]pyridin-3-yl]carbonyl}pyridin-4-yl)acetamide], the IC50 was determined as 207 nM.

`CC(C)n1cc(C(=O)c2cc(NC(=O)Cc3cn(C4CC4)nc3C(F)(F)F)ccn2)c2cnccc21` [Example 57] registered an IC50 of 1680 nM.

The compound `CC(CO)n1cc(C(=O)c2cncc(NC(=O)Cn3ccc(C(F)(F)F)n3)c2)c2cnccc21` (stereo not shown) [Example 75, N-(5-{[1-(1-hydroxypropan-2-yl)-1H-pyrrolo[3,2-c]pyridin-3-yl]carbonyl}pyridin-3-yl)-2-[3-(trifluoromethyl)-1H-pyrazol-1-yl]acetamide] gave an IC50 of 44.9 nM.

In turn, `O=C(Cn1nccn1)Nc1cc(C(=O)c2cn(CCO)c3ccncc23)ccn1` [Example 158, N-(4-{[1-(2-hydroxyethyl)-1H-pyrrolo[3,2-c]pyridin-3-yl]carbonyl}pyridin-2-yl)-2-(2H-1,2,3-triazol-2-yl)acetamide] had an IC50 of 9800 nM.

In the case of `CC(C)(CO)n1cc(C(=O)c2cncc(NC(=O)Cc3ccc(F)cn3)c2)c2cnccc21` [Example 16, 2-(5-fluoropyridin-2-yl)-N-(5-{[1-(1-hydroxy-2-methylpropan-2-yl)-1H-pyrrolo[3,2-c]pyridin-3-yl]carbonyl}pyridin-3-yl)acetamide], the midpoint of inhibition, the IC50, lay at 18.2 nM.

Compound `CC(CO)n1cc(C(=O)c2cncc(NC(=O)Cc3ccc(C(F)(F)F)cc3)c2)c2cnccc21` (single isomer, unassigned) [Example 65, N-(5-{[1-(1-hydroxypropan-2-yl)-1H-pyrrolo[3,2-c]pyridin-3-yl]carbonyl}pyridin-3-yl)-2-[4-(trifluoromethyl)phenyl]acetamide] gave an IC50 of 37 nM.

For the compound `CC(C)n1cc(C(=O)c2cncc(NC(=O)Cc3coc(C4CC4)n3)c2)c2cnccc21` [Example 43, 2-(2-cyclopropyl-1,3-oxazol-4-yl)-N-(5-{[1-(propan-2-yl)-1H-pyrrolo[3,2-c]pyridin-3-yl]carbonyl}pyridin-3-yl)acetamide], the IC50 was 118 nM.

Regarding `O=C(Cc1cccc(Cl)c1)Nc1cc(C(=O)c2cn(CCO)c3ccncc23)ccn1` [Example 149, 2-(3-chlorophenyl)-N-(4-{[1-(2-hydroxyethyl)-1H-pyrrolo[3,2-c]pyridin-3-yl]carbonyl}pyridin-2-yl)acetamide], the 50% inhibitory concentration (IC50) is 200 nM.

Consider `CC(C)n1cc(C(=O)c2cncc(NC(=O)Cc3nc(C(C)(C)C)nn3C)c2)c2cnccc21` [Example 42, 2-(3-tert-butyl-1-methyl-1H-1,2,4-triazol-5-yl)-N-(5-{[1-(propan-2-yl)-1H-pyrrolo[3,2-c]pyridin-3-yl]carbonyl}pyridin-3-yl)acetamide], for which half-maximal inhibition (IC50) was put at 179 nM. This IC50 and that of the compound before are within 1.5-fold of each other.

For `O=C(Nc1cc(C(=O)c2cn(C3COC3)c3ccncc23)ccn1)c1cccc(OC(F)(F)F)c1` [Example 205, N-(4-{[1-(oxetan-3-yl)-1H-pyrrolo[3,2-c]pyridin-3-yl]carbonyl}pyridin-2-yl)-3-(trifluoromethoxy)benzamide], the midpoint of inhibition, the IC50, lay at 33 nM.

With `CC(C)n1cc(C(=O)c2ccnc(NC(=O)Cc3ccc(F)cc3F)c2)c2cnccc21` [Example 106, 2-(2,4-difluorophenyl)-N-(4-{[1-(propan-2-yl)-1H-pyrrolo[3,2-c]pyridin-3-yl]carbonyl}pyridin-2-yl)acetamide], inhibition was half-maximal at 17.9 nM (IC50). Compared with the last compound, the IC50 is about 1.8-fold lower.

Regarding `Cc1cn(CC(=O)Nc2cncc(C(=O)c3cn(C(C)C)c4ccncc34)c2)nn1` [Example 132, 2-(4-methyl-1H-1,2,3-triazol-1-yl)-N-(5-{[1-(propan-2-yl)-1H-pyrrolo[3,2-c]pyridin-3-yl]carbonyl}pyridin-3-yl)acetamide], the concentration for half-maximal inhibition (IC50) stood at 505 nM.

The compound `CC(C)n1cc(C(=O)c2ccnc(NC(=O)Cc3cccc(Cl)c3)c2)c2cnccc21` [Example 96, 2-(3-chlorophenyl)-N-(4-{[1-(propan-2-yl)-1H-pyrrolo[3,2-c]pyridin-3-yl]carbonyl}pyridin-2-yl)acetamide] yielded a half-inhibitory concentration (IC50) of 13.8 nM.

`CC(C)n1cc(C(=O)c2ccnc(NC(=O)Cc3ccccc3)c2)c2cnccc21` [Example 107, 2-phenyl-N-(4-{[1-(propan-2-yl)-1H-pyrrolo[3,2-c]pyridin-3-yl]carbonyl}pyridin-2-yl)acetamide] gave a half-maximal inhibitory concentration (IC50) of 64 nM. Compared with the last compound, the IC50 is about 4.6-fold higher.

In the case of `N#Cc1ccc(CC(=O)Nc2cc(C(=O)c3cn(C4COC4)c4ccncc34)ccn2)cc1` [Example 195, 2-(4-cyanophenyl)-N-(4-{[1-(oxetan-3-yl)-1H-pyrrolo[3,2-c]pyridin-3-yl]carbonyl}pyridin-2-yl)acetamide], the IC50 amounted to 203 nM.

`CC(C)(CO)n1cc(C(=O)c2cncc(NC(=O)Cc3ccc(C(F)(F)F)cc3)c2)c2cncc(F)c21` [Example 7, N-{5-[7-Fluoro-1-(2-hydroxy-1,1-dimethyl-ethyl)-1H-pyrrolo[3,2-c]pyridine-3-carbonyl]-pyridin-3-yl}-2-(4-trifluoromethyl-phenyl)-acetamide] registered an IC50 of 6.61 nM.

`Cc1nc(CC(=O)Nc2cc(C(=O)c3cn(C(C)C)c4ccncc34)ccn2)c(C2CC2)o1` [Example 174, 2(5-cyclopropyl-2-methyl-1,3-oxazol-4-yl)-N-(4-{[1-(propan-2-yl)-1H-pyrrolo[3,2-c]pyridin-3-yl]carbonyl}pyridin-2-yl)acetamide] yielded an IC50 of 51.4 nM.

`CC(CO)n1cc(C(=O)c2cncc(NC(=O)Cc3cccc(C(F)(F)F)c3)c2)c2cncc(F)c21` (single isomer, unassigned) [Example 226, N-(5-{[7-fluoro-1-(1-hydroxypropan-2-yl)-1H-pyrrolo[3,2-c]pyridin-3-yl]carbonyl}pyridin-3-yl)-2-[3-(trifluoromethyl)phenyl]acetamide] registered an IC50 of 11.3 nM.

With `CC(C)n1cc(C(=O)c2cc(NC(=O)Cc3ccc(Cl)cc3)ccn2)c2cncc(F)c21` [Example 85, 2-(4-chlorophenyl)-N-(2-{[7-fluoro-1-(propan-2-yl)-1H-pyrrolo[3,2-c]pyridin-3-yl]carbonyl}pyridin-4-yl)acetamide], it took 23.3 nM to reach half-maximal inhibition (IC50).
